Like-named read-outs stand apart in the source and are kept apart here.
Assays:
IRAK4 = IRAK4 (Homo sapiens (Human), UniProt Q9NWZ3); experiment: IRAK4 Inhibition Assay; type: biochemical; conditions: ATP 500 μM, read-out: IRAK4 IC50
Outline: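 Mobility-shift readout: fluorescent substrate and phosphoproduct resolved electrophoretically on Caliper LabChip 3000 after EDTA quench (35 mM). Enzyme reaction of IRAK4, substrates and test compound ran 60 min at room temperature.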

[1] = tested on: TLR2 induced IL-6 in peripheral blood mononuclear cells (PBMCs); experiment: PBMC TLR2 Induced IL-6 Assay; type: cell-based, human; conditions: for EC50: read-out: Cell EC50; for IC50: read-out: Cell IC50
Outline: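 Lipoteichoic acid at 10 µg/ml served as TLR2 stimulus for 5 hours, following a 30-minute compound pretreatment at 37° C. Cells were Ficoll-isolated human PBMCs, 250000 cells/well, cultured in RPMI plus 10% heat-inactivated FCS.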

[2] = Homo sapiens, PBMC, PBMC TLR2 Induced IL-6 Assay, lipoteichoic acid stimulation, IL-6 by ELISA
[3] = Homo sapiens, PBMC, human PBMCs, lipoteichoic acid stimulated, IL-6 by ELISA
[4] = PBMC TLR2 Induced IL-6 Assay, lipoteichoic acid stimulation, IL-6 by ELISA

Sequence of IRAK4 (Q9NWZ3 whole entry, species assumed): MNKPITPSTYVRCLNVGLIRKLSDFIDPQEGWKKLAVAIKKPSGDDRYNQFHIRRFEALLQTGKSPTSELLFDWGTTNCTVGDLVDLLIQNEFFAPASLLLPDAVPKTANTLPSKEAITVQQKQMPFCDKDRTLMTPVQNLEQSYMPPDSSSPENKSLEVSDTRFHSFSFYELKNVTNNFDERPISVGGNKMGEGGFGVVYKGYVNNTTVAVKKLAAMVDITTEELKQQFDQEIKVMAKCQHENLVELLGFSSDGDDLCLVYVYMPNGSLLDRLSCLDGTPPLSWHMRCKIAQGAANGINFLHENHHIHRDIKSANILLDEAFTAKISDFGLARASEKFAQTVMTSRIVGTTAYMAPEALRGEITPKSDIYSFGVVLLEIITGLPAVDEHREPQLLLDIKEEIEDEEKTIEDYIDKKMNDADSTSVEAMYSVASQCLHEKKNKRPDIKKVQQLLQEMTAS

SMILES | IC50 (IRAK4; IRAK4 Inhibition Assay) [nM] | EC50 [1, 2] [nM] | IC50 (IRAK4; IRAK4 0.6 nM) [nM] | other results
CC(C)Nc1cc(-n2ccc3cc(C#N)cnc32)ncc1C(=O)N[C@H]1CC[C@](F)(c2nccn2C)CC1 [Example 181, 6-(5-cyano-1H-pyrrolo[2,3-b]pyridin-1-yl)-N-((1 s,4s)-4-fluoro-4-(1-methyl-1H-imidazol-2-yl)cyclohexyl)-4-(isopropylamino) nicotinamide] | 4.3 | 152 |  | 
CCOC(C)(C)[C@H](F)CNC(=O)c1cnc(-n2ccc3cc(C#N)cnc32)cc1NC(C)C [Example 448] |  |  | 2.4 | EC50 [1, 3]: 175 nM
CC(C)(F)[C@H](F)CNC(=O)c1cnc(-n2ccc3cc(C#N)cnc32)cc1Nc1cccc(O)c1 [Example 517] |  |  | 1.2 | IC50 [1, 3]: 113 nM
CC(C)(O)CCNC(=O)c1cnc(-n2ncc3cc(C#N)cnc32)cc1NC1COC1 [Example 553] |  |  | 11.2 | IC50 [1, 3]: 298 nM
CCCNc1cc(-n2ccc3cc(C#N)cnc32)ncc1C(=O)NC[C@@H](F)C(C)(C)O [Example 18] | 2.1 | 62 |  | 
CC(C)(O)[C@H](F)CNC(=O)c1cnc(-n2ncc3cc(C#N)cnc32)cc1NCCCF [Example 595] |  |  | 5.3 | IC50 [1, 3]: 129 nM
CC(C)(O)[C@H](F)CNC(=O)c1cnc(-n2ncc3cc(C#N)cnc32)cc1NC1CN(c2ncc(Cl)cn2)C1 [Example 541] |  |  | 14.4 | IC50 [1, 3]: 149 nM
CC(C)(O)[C@H](F)CNC(=O)c1cnc(-n2ccc3cc(C#N)cnc32)cc1Nc1cccc(CO)c1 [Example 71, (R)-6-(5-cyano-1H-pyrrolo[2,3-b]pyridin-1-yl)-N-(2-fluoro-3-hydroxy-3-methylbutyl)-4-((3-(hydroxymethyl)phenyl)amino)nicotinamide] | 1.5 | 28 |  | 
CC(=O)Nc1cnc2c(ccn2-c2cc(NC(C)C)c(C(=O)NC[C@@H](F)C(C)(C)O)cn2)c1 [Example 45, (R)-6-(5-acetamido-1H-pyrrolo[2,3-b]pyridin-1-yl)-N-(2-fluoro-3-hydroxy-3-methylbutyl)-4-(isopropylamino)nicotinamide] | 23.2 | 148 |  | 
CNS(=O)(=O)N1CCC(NC(=O)c2cnc(-n3ncc4cc(C#N)cnc43)cc2NC(C)C)CC1 [Example 313] | 14.7 |  |  | IC50 [1, 2]: 289 nM
CC(C)Nc1cc(-n2ccc3cc(C#N)cnc32)ncc1C(=O)N[C@H]1CC[C@](O)(c2ccncc2)CC1 [Example 179, 6-(5-cyano-1H-pyrrolo[2,3-b]pyridin-1-yl)-N-((1 s,4s)-4-hydroxy-4-(pyridin-4-yl)cyclohexyl)-4-(isopropylamino)nicotinamide] | 2.8 | 135 |  | 
CC(C)(O)[C@H](F)CNC(=O)c1cnc(-n2ncc3cc(C#N)c(N)nc32)cc1NC12CC(C1)C2 [Example 637] |  |  | 1.5 | IC50 [1, 3]: 165 nM
CC(C)(O)[C@H](F)CNC(=O)c1cnc(-n2ncc3cc(C#N)cnc32)cc1Nc1cccc(C#N)c1 [Example 522] |  |  | 2.6 | EC50 [1, 3]: 177 nM
CC(C)(O)[C@H](F)CNC(=O)c1cnc(-n2ncc3cc(C#N)cnc32)cc1NC1CCN(c2ccccc2)CC1 [Example 535] |  |  | 4 | EC50 [1, 3]: 185 nM
CC(C)Nc1cc(-n2ncc3cc(C#N)cnc32)ncc1C(=O)NCCC1(O)CC1 [Example 331] | 6.2 |  |  | IC50 [1, 2]: 57 nM
CC(C)Nc1cc(-n2ncc3cc(C#N)cnc32)ncc1C(=O)NC[C@@H](F)C(C)(C)O [Example 335] | 3.3 |  |  | EC50 [1, 4]: 77 nM
CC(O)CCNC(=O)c1cnc(-n2ncc3cc(C#N)cnc32)cc1NC(C)C (stereo not shown) [Example 238] | 8.1 | 357 |  | IC50 [1, 4]: 1810 nM
CC(C)Nc1cc(-n2ncc3cc(C#N)cnc32)ncc1C(=O)Nc1ccc(O)cn1 [Example 217] | 15.5 | 503 |  | 
CC(C)(C)OC(=O)N1CC(Nc2cc(-n3ccc4cc(C#N)cnc43)ncc2C(=O)NC[C@@H](F)C(C)(C)O)C1 [Example 457] |  |  | 10.3 | EC50 [1, 3]: 458 nM; IC50 [1, 3]: 1240 nM
CC(C)(O)[C@H](F)CNC(=O)c1cnc(-n2ccc3cc(Cl)cnc32)cc1NC1CC1 [Example 34, (R)-6-(5-chloro-1H-pyrrolo[2,3-b]pyridin-1-yl)-4-(cyclopropylamino)-N-(2-fluoro-3-hydroxy-3-methylbutyl)nicotinamide] | 5.3 | 180 |  | IC50 [1, 2]: 407 nM
CC(C)Nc1cc(-n2ccc3cc(C#N)cnc32)ncc1C(=O)N[C@H]1CC[C@](O)(c2cccnc2)CC1 [Example 177, 6-(5-cyano-1H-pyrrolo[2,3-b]pyridin-1-yl)-N-((1s,4s)-4-hydroxy-4-(pyridin-3-yl)cyclohexyl)-4-(isopropylamino)nicotinamide] | 3.6 | 352 |  | 

SMILES | IC50 (IRAK4; IRAK4 Inhibition Assay) [nM] | EC50 [1, 2] [nM] | IC50 (IRAK4; IRAK4 0.6 nM) [nM] | other results
CC(C)(O)[C@H](F)CNC(=O)c1cnc(-n2cnc3cc(C#N)cnc32)cc1Nc1cnn(CC(F)F)c1 [Example 375] | 1.8 |  |  | IC50 [1, 2]: 156 nM
COC(=O)N[C@H]1CC[C@H](NC(=O)c2cnc(-n3ccc4cc(C#N)cnc43)cc2NC(C)C)CC1 [Example 97, methyl((trans)-4-(6-(5-cyano-1H-pyrrolo[2,3-b]pyridin-1-yl)-4-(isopropylamino)nicotinamido)cyclohexyl)carbamate] | 4.9 | 108 |  | 
CC(=O)N1CC[C@@H](Nc2cc(-n3ccc4cc(C#N)cnc43)ncc2C(=O)NC[C@@H](F)C(C)(C)O)C1 [Example 469] |  |  | 2.9 | EC50 [1, 3]: 84 nM; IC50 [1, 3]: 207 nM
CC(C)(O)[C@H](F)CNC(=O)c1cnc(-n2ncc3cc(C#N)cnc32)cc1Nc1cnn(CCCF)c1 [Example 368] | 2.4 |  |  | IC50 [1, 2]: 61 nM
CCOP(=O)(CCNC(=O)c1cnc(-n2ncc3cc(C#N)cnc32)cc1NC(C)C)OCC [Example 208] | 16 |  |  | EC50 ([1]; Homo sapiens, PBMC): 238 nM
C[C@H](CF)Nc1cc(-n2ccc3cc(C#N)cnc32)ncc1C(=O)NC[C@@H](F)C(C)(C)O [Example 118, 6-(5-cyano-1H-pyrrolo[2,3-b]pyridin-1-yl)-N—((R)-2-fluoro-3-hydroxy-3-methylbutyl)-4-(((R)-1-fluoropropan-2-yl)amino)nicotinamide] | 1.8 | 18 |  | 
C[C@H](Nc1cc(-n2ccc3cc(C#N)cnc32)ncc1C(=O)NC[C@@H](F)C(C)(C)O)C1CC1 [Example 451] |  |  | 4.4 | EC50 [1, 3]: 429 nM
CC[C@H](C)Nc1cc(-n2ncc3cc(C#N)cnc32)ncc1C(=O)NC[C@@H](F)C(C)(C)O [Example 289] | 4.7 |  |  | IC50 [1, 2]: 275 nM
CC(C)Nc1cc(-n2ncc3cc(C#N)cnc32)ncc1C(=O)NC[C@@H](F)C(C)C [Example 312] | 9.2 |  |  | IC50 [1, 2]: 375 nM
CC(C)Nc1cc(-n2ccc3cccnc32)ncc1C(=O)NC[C@@H](F)C(C)(C)O [Example 74, (R)—N-(2-fluoro-3-hydroxy-3-methylbutyl)-4-(isopropylamino)-6-(1H-pyrrolo[2,3-b]pyridin-1-yl)nicotinamide] | 4.3 |  |  | IC50 [1, 2]: 531 nM
CC(C)Nc1cc(-n2ccc3cc(C#N)cnc32)ncc1C(=O)N[C@H]1CC[C@](F)(c2ccnn2C)CC1 [Example 174, 6-(5-Cyano-1H-pyrrolo[2,3-b]pyridin-1-yl)-N-((1s,4s)-4-fluoro-4-(1-methyl-1H-pyrazol-5-yl)cyclohexyl)-4-(isopropylamino)nicotinamide] | 3.3 | 182 |  | 
CC(C)(O)[C@H](F)CNC(=O)c1cnc(-n2ccc3cc(C#N)cnc32)cc1NC1CN(c2ncc(F)cn2)C1 [Example 472] |  |  | 2 | EC50 [1, 3]: 70 nM; IC50 [1, 3]: 123 nM
CC(C)(O)[C@H](F)CNC(=O)c1cnc(-n2ncc3cc(C#N)cnc32)cc1Nc1ccc(-n2cncn2)cc1 [Example 526] |  |  | 3.7 | EC50 [1, 3]: 113 nM
CC(C)(O)[C@H](F)CNC(=O)c1cnc(-n2ncc3cc(C#N)cnc32)cc1NC1CCC(F)(F)C1 (single isomer, unassigned) [Example 614] |  |  | 7.7 | EC50 [1, 3]: 481 nM; IC50 ([1]; human PBMCs, lipoteichoic acid stimulated, IL-6 by ELISA): 491 nM
CC(C)Nc1cc(-n2ncc3cc(C#N)cnc32)ncc1C(=O)NCCc1ccc(S(N)(=O)=O)cc1 [Example 251] | 3.1 | 311 |  | 
CC(C)(O)[C@H]1CC[C@H](NC(=O)c2cnc(-n3ccc4cc(F)cnc43)cc2NC2CC2)CC1 [Example 428] |  |  | 4.6 | EC50 [1, 3]: 361 nM
CCN(CC)C(=O)NCc1cnc2c(ccn2-c2cc(NC(C)C)c(C(=O)NC[C@@H](F)C(C)(C)O)cn2)c1 [Example 500] |  |  | 13.2 | IC50 [1, 3]: 546 nM
CC1(Nc2cc(-n3cnc4cc(C#N)cnc43)ncc2C(=O)NC[C@@H](F)C(C)(C)O)CC1 [Example 343] | 3.5 |  |  | IC50 [1, 2]: 428 nM
CC(C)(O)[C@H](F)CNC(=O)c1cnc(-n2ccc3cc(C#N)cnc32)cc1NC[C@@H](F)C(C)(C)O [Example 52, 6-(5-cyano-1H-pyrrolo[2,3-b]pyridin-1-yl)-N—((R)-2-fluoro-3-hydroxy-3-methylbutyl)-4-(((R)-2-fluoro-3-hydroxy-3-methylbutyl)amino)nicotinamide] | 2.4 | 66 |  | 
Cn1nccc1Nc1cc(-n2ncc3cc(C#N)cnc32)ncc1C(=O)NC[C@@H](F)C(C)(C)O [Example 409] |  |  | 17.5 | EC50 [1, 3]: 463 nM

— patent US9169252B2 (BRISTOL-MYERS SQUIBB COMPANY, priority 2014, dated 2015)
